{"source": "patent US20060014727A1", "about": "“Angiogenic compounds and uses thereof” (priority 2002, published 2006)", "key": {"[1]": {"tested_on": "Human umbilical vein endothelial cells (HUVEC)", "experiment": "Endothelial sprouting assay", "assay_type": "cell-based", "conditions": "HUVEC-coated beads in fibrin gels, 3 days, 0.625 μg/ml to 5 μg/ml, FIG. 1, averages from seven independent experiments", "experimental": "Human umbilical vein endothelial cells (HUVEC) from normal umbilical cords were obtained by collagenase treatment. Cultures were propagated in MCDB medium supplemented with 15% FCS, heparin, and endothelial cell growth supplement. Endothelial sprouting was assessed by a modification of the method of Nehls and Drenckhahn ^14. Briefly, microcarrier beads coated with gelatin (Cytodex 3, Sigma) were seeded with HUVEC. When the cells reached confluence on the beads, equal numbers of […] beads were embedded in fibrin gels in 96-well plates. For preparation of fibrin gels, bovine fibrinogen was dissolved in MCDB at a concentration of 2.5 mg/ml. Aprotinin was added at a concentration of 0.05 mg/ml and the solution filtered through a 0.22 micron filter. Fibrinogen solution was supplemented with FGF-2 or sokotrasterol sulphate. As a control, fibrinogen solution without angiogenic factor was used. Following transfer of the fibrinogen solution to 96-well plates, HUVEC-coated beads were added at a density of 50 beads/well, and clotting was induced by the addition of thrombin (1.2 U/ml). […] After 3 days of incubation with daily medium changes, the number of capillary-like tubes formed was quantitated by counting the number of tube-like structures per microcarrier bead (sprouts/bead). Only sprouts greater than 150 μm in length and composed of at least 3 endothelial cells were counted. […]"}, "[2]": {"tested_on": "chick chorioallantoic membrane (CAM)", "experiment": "Chick chorioallantoic membrane (CAM) assay", "assay_type": "in vivo, Gallus gallus domesticus", "conditions": "20, 40 and 60 μg/ml, 20 μl on gelatin sponge, day 8 to day 10", "experimental": "Fertilized White Leghorn chicken eggs (Gallus gallus domesticus) were incubated at 37° C. under conditions of constant humidity. All chick eggs were handled according to institutional animal care procedures. On embryonic day 6, the developing chick chorioallantoic membrane (CAM) was separated from the shell by opening a small circular window at the broad end of the egg above the air sac. The embryos were checked for normal development, the window sealed with Parafilm, and the eggs returned to the incubator for 2 more days. On day 8, CAMs were treated with FGF-2 (30 ng/ml), sokotrasterol sulphate (20, 40 and 60 μg/ml) or PBS by loading 20 μl onto 2-mm^3 gelatin sponges (Gelfoam; Pharmacia Upjohn), which were then placed on the surface of the developing CAM. Eggs were resealed and returned to the incubator. On day 10, images of the CAMs were captured digitally using an Olympus SZX9 stereomicroscope (Olympus America) equipped with a Spot RT digital imaging system (Diagnostic Instruments). Neovascularization was quantitated for each CAM by counting the number of vessels that entered the sponge area, and dividing by the perimeter of the sponge (vessels/mm). Northern Eclipse version 6.0 (Empix Imaging Inc.) was used for manual vessel counting and mesh perimeter measurements."}, "[3]": {"conditions": "listed as Sokotrasterol sulphate"}}}
{"substance": "sokotrasterol sulphate", "values": [{"measurement": "endothelial sprouting (number of tube-like structures per microcarrier bead, sprouts/bead)", "setting": "[1]", "value": "promoted endothelial sprouting in vitro in a concentration-dependent manner"}, {"measurement": "endothelial sprouting (number of tube-like structures per microcarrier bead, sprouts/bead)", "setting": "[1]; [3]", "value": "promotes endothelial sprouting in vitro"}, {"measurement": "neovascularization: number of vessels entering the gelatin sponge per mm of perimeter (vessels/mm)", "setting": "[2]", "value": "positive concentration-dependent effect"}, {"measurement": "neovascularization: number of vessels entering the gelatin sponge per mm of perimeter (vessels/mm)", "setting": "[2]; [3]", "value": "promotes angiogenesis"}]}
